Results taken from US12630536B2, “Cyanotriazine derivative, preparation method therefor, and application thereof” (Chengdu Fanxi Biopharma Co., LTD., priority 2020, dated 2026).

Key:
[1] = target: T1, THR-α ligand-binding domain (H6-THR-α) (Homo sapiens, UniProt P10827); assay: Co-activated peptide recruitment test of THR-α/RXR/GRIP1 (TR_LBD agonist detection, HTRF); format: biochemical
T1 construct: made in house; host or cells: Escherichia coli BL21 (DE3), vector pET28a
T1 sequence (P10827 148-410 isoform P10827-2 limits assumed): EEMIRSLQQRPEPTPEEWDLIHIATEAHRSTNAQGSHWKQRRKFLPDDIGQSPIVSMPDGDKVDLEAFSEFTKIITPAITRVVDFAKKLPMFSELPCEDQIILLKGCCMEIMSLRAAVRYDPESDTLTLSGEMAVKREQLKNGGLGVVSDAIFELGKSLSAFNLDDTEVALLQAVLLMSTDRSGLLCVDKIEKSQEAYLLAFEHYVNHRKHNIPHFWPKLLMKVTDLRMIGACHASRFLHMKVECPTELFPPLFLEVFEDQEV
T1 sequence (P19793 225-462 partner limits assumed): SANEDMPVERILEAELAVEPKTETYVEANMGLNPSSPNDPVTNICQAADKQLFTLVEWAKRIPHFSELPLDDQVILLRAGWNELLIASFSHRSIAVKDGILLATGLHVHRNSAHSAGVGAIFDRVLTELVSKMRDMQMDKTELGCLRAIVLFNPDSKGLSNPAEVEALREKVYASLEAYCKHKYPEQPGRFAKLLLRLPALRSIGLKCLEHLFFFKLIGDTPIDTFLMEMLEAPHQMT
T1 sequence (Q15596 679-703 partner limits assumed): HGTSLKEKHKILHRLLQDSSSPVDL
Protocol: (§1) A ligand binding domain of THR-β (amino acids 148-410) (H6-THR-β) and a ligand binding domain of THR-α (amino acids 202-461) (H6-TRα) were cloned into E. coli expression vector pET28a (Novagen, Milwaukee, Wis.) containing N-terminal six His sequences. The resulting recombinant six-His-tagged protein was produced in E. coli BL21(DE3) cells. The cells were grown in Terrific Broth (self-used self-prepared Bacto tryptone (3.3%, w/v), Difico yeast extract (2.0%, w/v) and NaCl (0.5%, w/v) medium), incubated at 25° C. for 24 hours using a shake flask in 0.2 mM IPTG, harvested or dissolved with 5 volumes of buffer A (0.05 M Tris, 0.3 M NaCl, 1% W/V betaine, 0.01 M imidazole, 0.02 M b-mercaptoethanol, pH 8.0). Lysozyme (1.0 mg/ml, Sigma) and CompleteProtease Inhibitor Cocktail (Roche Diagnostics Gmbh) were added to the slurry and the solution was sonicated for one minute and 5 times at 4° C. The suspension was centrifuged at 127,300 RCF for 2 hours in a Ti45 Beckmann rotor and the supernatant was loaded onto an NI NTAAgarose (Quigen 30210) column. After washing with the buffer A, […] or H6-THR-α was eluted with the buffer A containing 0.25 M imidazole.
(§2) 30 microliters of H6-THR-β (50 nM) or H6-THR-α in 50 mM Hepes, pH 7.0, 1 mM DTT, 0.05% NP40 and 0.2 mg/ml BSA (binding buffer) were mixed with an equal volume of EE-RxRα (50 nM) in the binding buffer. […] Aliquot ([…]) was transferred to a 384-well black microtiter plate. HTRF signal was read on a Victor5 reader (PerkinElmer Life and Analytical Sciences). EC50 was calculated.
(§3) Gene clones expressing a ligand-binding domain (amino acids 148-410) of THR-β (H6-THR-β) and a ligand-binding domain (amino acids 202-461) of THR-α (H6-THR-α) were inserted into an Escherichia coli expression vector pET28a, and the expression vector contained one N-terminal 6-His sequence. The expression vector was introduced into an Escherichia coli BL21 (DE3) strain to produce a recombinant protein with a His tag. […] After finishing culturing, a bacterium in culture was collected, and the collected bacterium was resuspended with a lysis solution (0.05 M Tris, 0.3 M NaCl, 1% W/V betaine, 0.01 M imidazole, 0.02 M β-mercaptoethanol, and pH 8.0) with a volume 5 times that of the bacterium, and lysozyme and protease inhibitors were added at the same time, the treated bacteria was subjected to ultrasonic lysis (5 times per minute) in ice bath (4° C.). A lysed suspension was centrifuged at 127300 RCF for 2 hours, a supernatant was loaded on a NI_NTA agarose (Quigen 30210) column, and after washing with a buffer A, an H6-TRβ or H6-TRα protein was eluted with the buffer A containing 0.25 M imidazole.
(§4) A human retinol X receptor (amino acid 225-462) (RxRα) was subjected to engineering modification, so that an N-terminal of the human retinol X receptor had His6 and EE(EFMPME) tags, and then the human retinol X receptor was cloned into a pACYC vector, and produced a His6 EEtagged protein in Escherichia coli. IPTG with a final concentration of 0.1 mM was added into the culture medium for induction, and cultured in a shaking flask at 18° C. for 18 hours. After finishing culturing, a bacterium in culture was collected, and the collected bacterium was re-suspended with a lysis solution (0.05 M Tris, 0.3 M NaCl, 1% W/V betaine, 0.01 M imidazole, 0.02 β-mercaptoethanol, and pH 8.0) with a volume 5 times that of the bacterium, lysozyme and protease inhibitors were added at the same time, and stirred at 4° C. for 30 minutes. Then, a suspension was subjected to an ultrasonic treatment at 4° C. for 30 seconds for 5 times. The suspension was collected, and centrifuged at 12000 RCF for 20 minutes. A supernatant was collected, and the supernatant was filtered with a membrane with a pore size of 0.45 μm, and then added with 0.5% NP-40.

[2] = target: T2, THR-β ligand-binding domain (H6-THR-β) (Homo sapiens, UniProt P10828); assay: Co-activated peptide recruitment test of THR-β/RXR/GRIP1 (TR_LBD agonist detection, HTRF); format: biochemical
T2 construct: made in house; host or cells: Escherichia coli BL21 (DE3), vector pET28a
T2 sequence (P10828 217-461 limits assumed): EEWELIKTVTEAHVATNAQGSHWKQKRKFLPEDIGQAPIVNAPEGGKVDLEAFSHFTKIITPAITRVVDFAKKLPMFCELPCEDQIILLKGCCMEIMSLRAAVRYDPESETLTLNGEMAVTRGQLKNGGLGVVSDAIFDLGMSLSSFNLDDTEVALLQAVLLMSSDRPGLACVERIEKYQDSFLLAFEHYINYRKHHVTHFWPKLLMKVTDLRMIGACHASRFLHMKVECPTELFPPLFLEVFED
T2 sequence (P19793 225-462 partner limits assumed): T1 sequence (P19793 225-462 partner limits assumed)
T2 sequence (Q15596 679-703 partner limits assumed): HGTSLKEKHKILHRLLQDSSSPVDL
Protocol: as §1, §2, §3, §4

## Cn1cnc2ccc(Oc3c(Br)cc(-n4nc(C#N)c(=O)[nH]c4=O)cc3Br)cc21 [Compound 1, 2-(3,5-dibromo-4-((1-methyl-1H-benzo[d]imidazol-6-yl)oxy)phenyl)-3,5-dioxo-2,3,4,5-tetra hydro-1,2,4-triazine-6-carbonitrile]
[1]; Detection of TR_LBD agonist, read-out: TR_α_EC50
  EC50: 35.3 nM
[1]; TR_LBD agonist, TR_α
  Maximum activity ratio (A520/A495): 3.83
[1]; TR_LBD agonist, TR_α, maximum relative to T3
  Measurement of cpd/T3 (maximum ratio): 71.1%
[2]; Detection of TR_LBD agonist, read-out: TR_beta_EC50
  EC50: 4.96 nM
[2]; TR_LBD agonist, TR_β
  Maximum activity ratio (A520/A495): 4.02
[2]; TR_LBD agonist, TR_β, maximum relative to T3
  Measurement of cpd/T3 (maximum ratio): 73.4%
[2]; TR_LBD agonist, ratio TR_α EC50 / TR_β EC50
  α/β: 7.13
